# Data as given in US12083102B2, “Method for treating inflammatory disorders” (DIMERIX BIOSCIENCE PTY LTD, priority 2011, dated 2024).
# Entries after “also recorded” stand apart in the source; their conditions may differ.
# Columns and labels:
# monocytes = details: Yokochi (2001); cited from earlier work
# MCP-1 = details: Yokochi (2001); Yamada (2004); cited from earlier work
# [1] = tested on: mouse models of multiple sclerosis, renal ischemia-reperfusion injury, ureter obstruction, diabetic nephropathy; rat model of arthritis; details: Tesch (2008); cited from earlier work
# AT1R-Rluc8 [2] = biological target: T1, AT1R-Rluc8 (Homo sapiens, UniProt P30556); type: cell-based; details: HEK293FT cells; antagonist 10 μM; 100 nM AngII; FIG. 5 middle
# T1 construct: expressed in transfected cells; host or cells: HEK293FT
# T1 sequence (P30556 1-359): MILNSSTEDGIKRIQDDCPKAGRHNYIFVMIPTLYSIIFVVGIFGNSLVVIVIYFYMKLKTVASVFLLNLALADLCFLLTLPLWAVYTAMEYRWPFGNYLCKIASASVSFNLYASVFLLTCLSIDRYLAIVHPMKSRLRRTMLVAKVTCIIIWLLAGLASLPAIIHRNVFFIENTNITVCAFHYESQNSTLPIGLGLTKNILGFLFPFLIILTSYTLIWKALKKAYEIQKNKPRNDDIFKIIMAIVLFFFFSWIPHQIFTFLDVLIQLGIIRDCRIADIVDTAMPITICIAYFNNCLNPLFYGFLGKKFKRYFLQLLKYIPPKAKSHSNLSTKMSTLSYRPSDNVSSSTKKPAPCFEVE
# [3] = biological target: T2, AT1R-Rluc8 and the untagged CCR2 (Homo sapiens, UniProt P30556+P41597); type: cell-based; details: HEK293FT cells, FIG. 5 bottom; for MCP-1-induced BRET, AT1R-Rluc8, β-arrestin2-Venus and untagged CCR2: 100 nM MCP-1
# T2 construct: expressed in transfected cells; host or cells: HEK293FT
# Description: (§3) Data represent mean±SEM of three independent experiments performed in triplicate.
# HEK293FT cells were transiently transfected with plasmids coding for β-arrestin2-Venus and the indicated receptors: CCR2-Rluc8 (top panel), AT1R-Rluc8 (middle panel) or AT1R-Rluc8 and the untagged CCR2 (bottom panel).
# AT1R-Rluc8 [4] = biological target: T1, AT1R-Rluc8; experiment: Inositol phosphate (IP1) production (Example 4, top panel); type: cell-based; details: HEK293FT cells; antagonist 10 μM; 100 nM AngII; no CCR2; FIG. 6 top
# AT1R-Rluc8 and CCR2 [5] = biological target: T3, AT1R-Rluc8 and CCR2 (Homo sapiens, UniProt P30556+P41597); experiment: Inositol phosphate (IP1) production (Example 4, bottom panel); type: cell-based; details: HEK293FT cells, FIG. 6 bottom; for AngII-induced IP1 production, cells co-expressing AT1R-Rluc8 and CCR2 / MCP-1-induced IP1 production, cells co-expressing AT1R-Rluc8 and CCR2: antagonist 10 μM; for AngII-induced IP1 production, cells co-expressing AT1R-Rluc8 and CCR2: 100 nM AngII; for MCP-1-induced IP1 production, cells co-expressing AT1R-Rluc8 and CCR2: 100 nM MCP-1
# T3 construct: expressed in transfected cells; host or cells: HEK293FT
# Description: as §3
# [6] = biological target: CCR2-Rluc8 and HA-tagged AT1R (Homo sapiens, UniProt P30556+P41597); details: HEK293FT cells, FIG. 7 bottom; for MCP-1-induced BRET, CCR2-Rluc8, β-arrestin2-Venus and HA-tagged AT1R: 100 nM MCP-1
# AT1R-Rluc8 [7] = biological target: T1, AT1R-Rluc8; experiment: Inositol phosphate (IP1) production (Example 6, top panel); type: cell-based; details: HEK293FT cells; antagonist 10 μM; 100 nM AngII; no CCR2; FIG. 8 top
# Method: (§1) Data are shown as induced IP1 (arbitrary units).
# (§2) The cells were then lysed by adding the HTRF® assay reagents, the Terbium Cryptate-labeled anti-IP1 antibody, and the d2-labeled IP1 analog, previously diluted in the lysis buffer containing 1% Triton X-100. The assay was incubated for 1 hour at room temperature, and Terbium Cryptate fluorescence and the time resolved FRET signal were measured 50 μs after excitation at 340, 620, and 665 nm, respectively, using the EnVision 2102 multilabel plate reader (PerkinElmer). Data are shown as induced IP1 (arbitrary units). The IP-One Tb kit is a competition assay and so induction of IP1 results in a decrease in absolute assay signal. Therefore, the induced IP1 (arbitrary units) is generated by subtracting the ligand-induced assay signal from the basal assay signal.
# AT1R-Rluc8 and CCR2 [8] = biological target: T3, AT1R-Rluc8 and CCR2; experiment: Inositol phosphate (IP1) production (Example 6, bottom panel); type: cell-based; details: HEK293FT cells, FIG. 8 bottom
# Method: as §1, §2
# diabetic nephropathy = details: patients; Lewis (1993); cited from earlier work
# Chain of CCR2-Rluc8 and HA-tagged AT1R (P41597 whole entry, one chain of several): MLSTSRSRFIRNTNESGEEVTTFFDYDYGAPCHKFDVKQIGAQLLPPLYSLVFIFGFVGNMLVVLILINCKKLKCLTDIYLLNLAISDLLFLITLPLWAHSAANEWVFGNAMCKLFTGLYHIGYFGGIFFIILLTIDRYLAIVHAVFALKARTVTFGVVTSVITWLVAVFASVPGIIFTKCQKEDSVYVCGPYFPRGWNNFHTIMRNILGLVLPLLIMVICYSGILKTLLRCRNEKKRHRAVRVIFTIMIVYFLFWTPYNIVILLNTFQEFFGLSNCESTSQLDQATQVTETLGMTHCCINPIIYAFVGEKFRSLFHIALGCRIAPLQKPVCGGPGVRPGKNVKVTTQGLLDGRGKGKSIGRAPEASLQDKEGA
# T2 sequence (P41597 whole entry, one chain of several): as above
# T3 sequence (P41597 whole entry, one chain of several): as above
Compound,"inflammation in mouse models of multiple sclerosis, renal ischemia-reperfusion injury, ureter obstruction, diabetic nephropathy and a rat model of arthritis [1]","AngII-induced BRET response, AT1R-Rluc8 and β-arrestin2-Venus (AT1R-Rluc8 [2])","MCP-1-induced BRET, AT1R-Rluc8, β-arrestin2-Venus and untagged CCR2 ([3]; antagonist 10 μM)","AngII-induced IP1 production, cells expressing AT1R-Rluc8 (AT1R-Rluc8 [4])","AngII-induced IP1 production, cells co-expressing AT1R-Rluc8 and CCR2 (AT1R-Rluc8 and CCR2 [5])","MCP-1-induced IP1 production, cells co-expressing AT1R-Rluc8 and CCR2 (AT1R-Rluc8 and CCR2 [5])","MCP-1-induced BRET, CCR2-Rluc8, β-arrestin2-Venus and HA-tagged AT1R ([6]; antagonist 10 μM)",further results
3-oxygermylpropionic acid polymer [Propagermanium],suppress inflammation,–,–,–,–,–,–,in vitro chemotactic migration of monocytes by MCP-1 (monocytes): specifically inhibit; also recorded: inhibits; MCP-1 binding (MCP-1): does not inhibit
CCO[C@H]1CN(C2CCC(O)(c3ccc4c(c3)OCO4)CC2)C[C@@H]1NC(=O)CNC(=O)c1cccc(C(F)(F)F)c1 (stereo partly drawn) [INCB3344],suppress inflammation,–,–,–,–,–,–,–
"CCCCC1=NC2(CCCC2)C(=O)N1Cc1ccc(-c2ccccc2-c2nn[nH]n2)cc1 [Irbesartan, 2-butyl-3-({4-[2-(2H-1,2,3,4-tetrazol-5-yl)phenyl]phenyl}methyl)-1,3-diazaspiro[4.4]non-1-en-4-one]",–,substantially blocked,not the MCP-1-induced BRET,substantially abolished,substantially inhibiting,partially reduced,not the MCP-1-promoted BRET signal,"AngII-induced BRET, AT1R-Rluc8, β-arrestin2-Venus and untagged CCR2 ([3]; antagonist 10 μM, 100 nM AngII): substantially block; AngII-induced BRET, CCR2-Rluc8, β-arrestin2-Venus and HA-tagged AT1R ([6]; antagonist 10 μM, 100 nM AngII): partially blocked"
Cc1ccc2c(c1)C1(CCN(CCc3nc(-c4ccccc4)oc3C)CC1)OC(=O)N2 [RS504393],suppress inflammation,not RS504393 substantially blocked,partially blocked,"not RS504393, substantially abolished",little effect,substantially and selectively inhibited,substantially inhibited,"AngII-induced IP1 production, cells expressing AT1R-Rluc8 (AT1R-Rluc8 [7]): not RS504393, abolished; AngII-induced IP1 production, cells co-expressing AT1R-Rluc8 and CCR2 (AT1R-Rluc8 and CCR2 [8]; antagonist 10 μM, 100 nM AngII): little effect; MCP-1-induced IP1 response, cells co-expressing AT1R-Rluc8 and CCR2 (AT1R-Rluc8 and CCR2 [8]; antagonist 10 μM, 100 nM MCP-1): substantially and selectively inhibited; BRET response with combined treatment with MCP-1 and AngII, CCR2-Rluc8 and HA-tagged AT1R ([6]; antagonist(s) 10 μM, 100 nM MCP-1 and AngII): a substantial BRET signal remained"
C[C@H](CS)C(=O)N1CCC[C@H]1C(=O)O [captopril],–,–,–,–,–,–,–,progression of diabetic nephropathy (diabetic nephropathy): did not halt the progression of diabetic nephropathy in the vast majority of patients
"MCP-1: Monocyte chemotactic protein-1, also known as monocyte chemoattractant protein-1",–,–,–,–,–,–,–,"agonist-induced BRET, AT1R-Rluc8, β-arrestin2-Venus and untagged CCR2 ([3]; 100 nM agonist): induced BRET increases to different degrees; agonist-stimulated IP1 response, cells co-expressing AT1R-Rluc8 and CCR2 (AT1R-Rluc8 and CCR2 [5]; 100 nM agonist): seems to stimulate a partial IP1 response; agonist-stimulated IP1 response, cells co-expressing AT1R-Rluc8 and CCR2 (AT1R-Rluc8 and CCR2 [8]; 100 nM agonist): seems to stimulate a partial IP1 response"
